Reference: ChEMBL document CHEMBL1201862, “PubChem BioAssay data set” (2004)
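Following 48 hours of exposure in 96-well plates, responses at five concentrations were used to interpolate endpoints linearly. The concentration for 50% growth inhibition is given as GI50.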 Active and inactive are the calls of the source. No stated cut-off is given here; in the data, active = GI50 up to about 1.1 µM and inactive = higher.

Experiments:
Test in all cases: growth of human tumour cells (NCI), 48 h
786-0 = system: 786-0
A498 = system: A498
BT-549 = system: BT-549
CAKI-1 = system: CAKI-1
COLO 205 = system: COLO 205
HCC 2998 = system: HCC 2998
HL-60 = system: HL-60
IGROV-1 = system: IGROV-1
K562 = system: K562
MCF7 = system: MCF7
MOLT-4 = system: MOLT-4
OVCAR-4 = system: OVCAR-4
OVCAR-5 = system: OVCAR-5
RPMI-8226 = system: RPMI-8226
RXF 393 = system: RXF 393
SK-MEL-28 = system: SK-MEL-28
SK-MEL-2 = system: SK-MEL-2
UO-31 = system: UO-31
Hs-578T = system: Hs-578T
SF-539 = system: SF-539

Measured: GI50

COc1cc(/C=C2/SC(c3ccccc3)N(c3cc(Cl)ccc3Cl)C2=O)cc(OC)c1OC (configuration not stated)
inactive: 786-0 > 100 µM | A498 > 100 µM | BT-549 > 100 µM | CAKI-1 23.2 µM | COLO 205 > 100 µM | HCC 2998 > 100 µM | HL-60 51.9 µM | IGROV-1 44.9 µM | K562 59 µM | MCF7 30.8 µM | MOLT-4 > 100 µM | OVCAR-4 49.8 µM | OVCAR-5 > 100 µM | RPMI-8226 23.8 µM | RXF 393 45.8 µM | SK-MEL-28 87.7 µM | SK-MEL-2 > 100 µM | UO-31 75.3 µM

COC1=N[C@H](C(C)C)C(OC)=N[C@H]1Cc1ccc(C[C@@H]2N=C(OC)[C@@H](C(C)C)N=C2OC)s1
inactive: 786-0 45.6 µM | BT-549 > 100 µM | CAKI-1 50.2 µM | COLO 205 22.1 µM | HCC 2998 34.2 µM | Hs-578T 88.3 µM | IGROV-1 > 100 µM | K562 32.4 µM | MCF7 20.3 µM | MOLT-4 20 µM | OVCAR-4 37.7 µM | OVCAR-5 17.5 µM | SF-539 > 100 µM | SK-MEL-28 34.7 µM | SK-MEL-2 14.3 µM | UO-31 45.4 µM

CC1(CCCCO)C=CC(S(=O)(=O)c2ccccc2)CC1 (configuration not stated)
inactive: 786-0 3.96 µM | A498 8.59 µM | BT-549 14.4 µM | CAKI-1 10.7 µM | COLO 205 4.37 µM | HCC 2998 5.9 µM | IGROV-1 2.38 µM | K562 3.24 µM | MCF7 3.15 µM | MOLT-4 3.15 µM | OVCAR-4 8.67 µM | OVCAR-5 4.85 µM | RPMI-8226 1.56 µM | RXF 393 5.45 µM | SF-539 7.91 µM | SK-MEL-28 14.9 µM | SK-MEL-2 11.1 µM | UO-31 4.16 µM

O=C(Nc1ccc(N2C(=O)CSC2c2ccccc2O)cc1)c1ccc(N2C(=O)CSC2c2ccccc2O)cc1 (configuration not stated)
inactive: 786-0 43.7 µM | BT-549 87.1 µM | CAKI-1 > 100 µM | COLO 205 > 100 µM | HCC 2998 > 100 µM | Hs-578T 71.9 µM | IGROV-1 > 100 µM | K562 > 100 µM | MCF7 46.3 µM | MOLT-4 > 100 µM | OVCAR-4 67.6 µM | OVCAR-5 83.6 µM | RPMI-8226 57.9 µM | RXF 393 55.6 µM | SF-539 69.7 µM | SK-MEL-28 39.1 µM | SK-MEL-2 84.7 µM | UO-31 54.5 µM

CC(C)(C)OC(=O)N[C@@H](Cc1ccccc1)C(=O)N1CC[C@@H](C(=O)N2[C@H]3CC4CC[C@@]3(CS2(=O)=O)C4(C)C)N1
inactive: 786-0 > 100 µM | A498 > 100 µM | BT-549 63.5 µM | CAKI-1 > 100 µM | COLO 205 46.9 µM | HCC 2998 79.3 µM | HL-60 75.5 µM | Hs-578T 46.8 µM | K562 > 100 µM | MOLT-4 > 100 µM | OVCAR-4 68.1 µM | OVCAR-5 > 100 µM | RPMI-8226 82.6 µM | RXF 393 > 100 µM | SK-MEL-28 > 100 µM | SK-MEL-2 61.7 µM

CCSC12OC3(CCCCCN3C1=O)C1C(=O)N(c3ccccc3)C(=O)C12 (configuration not stated)
inactive: 786-0 > 100 µM | A498 > 100 µM | BT-549 > 100 µM | CAKI-1 > 100 µM | COLO 205 > 100 µM | HL-60 > 100 µM | Hs-578T > 100 µM | IGROV-1 > 100 µM | K562 > 100 µM | MOLT-4 > 100 µM | OVCAR-4 > 100 µM | OVCAR-5 > 100 µM | RXF 393 > 100 µM | SF-539 > 100 µM | SK-MEL-28 > 100 µM | SK-MEL-2 > 100 µM | UO-31 > 100 µM

COC([C@@H](OC(=O)c1ccccc1)[C@H](OC(=O)c1ccccc1)C(O)COC(=O)c1ccccc1)n1cc(C)c(=O)[nH]c1=O (some centres not stated)
inactive: 786-0 26.2 µM | BT-549 21.3 µM | COLO 205 22 µM | Hs-578T 28.4 µM | IGROV-1 31.4 µM | K562 13.7 µM | MCF7 13 µM | MOLT-4 3.6 µM | OVCAR-4 7.83 µM | OVCAR-5 19.1 µM | RPMI-8226 > 100 µM | RXF 393 14 µM | SK-MEL-28 39.3 µM | SK-MEL-2 25.7 µM | UO-31 25.5 µM

CCN(CC)C(=S)SNCc1ccc(S(N)(=O)=O)cc1
inactive: 786-0 14.3 µM | A498 > 57.1 µM | BT-549 18.5 µM | CAKI-1 14.7 µM | COLO 205 14.6 µM | HCC 2998 36 µM | HL-60 4.54 µM | Hs-578T 19.8 µM | IGROV-1 13.1 µM | K562 > 100 µM | MOLT-4 8.97 µM | OVCAR-4 18.7 µM | OVCAR-5 14 µM | RPMI-8226 2.93 µM | RXF 393 18.1 µM | SF-539 14.5 µM | SK-MEL-28 18.2 µM | SK-MEL-2 16.6 µM | UO-31 13.1 µM
